# Test results reported in US10870638B2, “Pyridazinone compound or its salt, and herbicide containing it” (ISHIHARA SANGYO KAISHA, LTD., priority 2016, dated 2020).
# Tests used:
# Type in all cases: in vivo
# Settings in all cases: active ingredient amount 31 g/ha, 14th day after application
# [1] = system: barnyardgrass (Echinochloa crus-qalli L.); assay: Test Example 1: foliar treatment, growth inhibition rate on 14th day
# In short: (§1)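 Visual 0–100% inhibition scoring (100 = complete kill) at 14 days after foliar treatment of soil-grown seedlings at species-specific leaf stages, with the compound sprayed as a wettable powder or emulsifiable concentrate dilution.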
# [2] = system: corn (Zea mays L.); assay: as above
# In short: as §1
# [3] = system: crabgrass (Digitaria sanquinalis L.); assay: as above
# In short: as §1
# [4] = system: green foxtail (Setaria viridis L.); assay: as above
# In short: (§2)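 Sow seeds in upland soil pots; at target leaf stage (wild oat 0.4–1.2, rice 0.2–2.7, foxtail 0.5–3.2, soybean primary leaf) spray formulated compound in water, 1,000 L/ha, 0.1 vol % surfactant. Score inhibition visually at day 14, 0–100%.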
# [5] = system: italian ryegrass (Lolium multiflorum Lam.); assay: as above
# In short: as §1
# [6] = system: redroot pigweed (Amaranthus retroflexus L.); assay: as above
# In short: as §1
# [7] = system: rice (Oryza sativa L.); assay: as above
# In short: as §2
# [8] = system: soybean (Glycine max Merr.); assay: as above
# In short: as §2
# [9] = system: wheat (Triticum aestivum L.); assay: as above
# In short: as §1
# [10] = system: wild oat (Avena fatua L.); assay: as above
# In short: as §2
# [11] = system: barnyardgrass (Echinochloa crus-qalli L.); assay: Test Example 2: soil application on the day after sowing, growth inhibition rate on 14th day
# In short: (§3)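 Field soil in 1/300,000 ha pots was sown, and the next day compounds formulated as wettable powders or emulsifiable concentrates were diluted in water (1,000 L/ha) and soil-sprayed at the prescribed active ingredient rates. Growth inhibition was scored visually 14 days later, 0 (untreated) to 100 (complete kill).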
# [12] = system: corn (Zea mays L.); assay: as above
# In short: as §3
# [13] = system: crabgrass (Digitaris sanquinalis L.); assay: as above
# In short: as §3
# [14] = system: green foxtail (Setaria viridis L.); assay: as above
# In short: as §3
# [15] = system: prickly sida (Sida spinosa L.); assay: as above
# In short: as §3
# [16] = system: redroot pigweed (Amaranthus retroflexus L.); assay: as above
# In short: as §3
# [17] = system: rice (Oryza sativa L.); assay: as above
# In short: as §3
# [18] = system: soybean (Glycine max Merr.); assay: as above
# In short: as §3
# [19] = system: velvetleaf (Abutilon theophrasti MEDIC.); assay: as above
# In short: as §3
# [20] = system: wheat (Triticum aestivum L.); assay: as above
# In short: as §3
Compound,Growth inhibition rate (%) Barnyardgrass [1] [%],Growth inhibition rate (%) Corn [2] [%],Growth inhibition rate (%) Crabgrass [3] [%],Growth inhibition rate (%) Green foxtail [4] [%],Growth inhibition rate (%) Italian ryegrass [5] [%],Growth inhibition rate (%) Redroot pigweed [6] [%],Growth inhibition rate (%) Rice [7] [%],Growth inhibition rate (%) Soybean [8] [%],Growth inhibition rate (%) Wheat [9] [%],Growth inhibition rate (%) Wild oat [10] [%],Growth inhibition rate (%) Barnyardgrass [11] [%],Growth inhibition rate (%) Corn [12] [%],Growth inhibition rate (%) Crabgrass [13] [%],Growth inhibition rate (%) Green foxtail [14] [%],Growth inhibition rate (%) Prickly sida [15] [%],Growth inhibition rate (%) Redroot pigweed [16] [%],Growth inhibition rate (%) Rice [17] [%],Growth inhibition rate (%) Soybean [18] [%],Growth inhibition rate (%) Velvetleaf [19] [%],Growth inhibition rate (%) Wheat [20] [%]
CC(=O)Oc1c(C)nn(C)c(=O)c1-c1cc(Oc2cnc(C(F)(F)F)cn2)ccc1C [Compound 2-195],93,83,90,93,85,0,40,30,35,90,98,0,98,99,0,0,20,0,0,0
COCOc1c(C)nn(C)c(=O)c1-c1cc(Oc2cnc3cc(Cl)ccc3n2)ccc1C [Compound 3-40],99,25,99,99,98,0,85,10,98,98,90,10,10,40,0,0,10,0,0,0
